Source: patent US20040127403A1, “Methods for treating and preventing Gram-positive bacteremias” (priority 2002, published 2004)
Converted amounts (≈) assume the structure as drawn. Where two headings read alike, the source gives them in different places.

What was measured:
Assay in all cases: MIC, NCCLS broth microdilution
Assay type in all cases: cell-based
E. faecium UA210 = details: Enterococcus faecium, UA210, E. faecium UA210, read-out: MIC
Outline: (§1)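 CAMHB and TSB, each + 0.02% BSA (blocks ramoplanin binding to plastic); MIC by NCCLS broth microdilution.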

E. faecium A6349 Line-R = details: Enterococcus faecium, A6349LINER, read-out: MIC
Outline: as §1

E. faecium A6345 Line-R = details: for MIC: Enterococcus faecium, A6345LINER, E. faecium A6345 Line-R, read-out: MIC
Outline: as §1

E. gallinarum UA604 = details: Enterococcus gallinarum, GALLINARUM, read-out: MIC
Outline: as §1

S. aureus ATCC27659 MSSA = details: Staphylococcus aureus, read-out: MIC
Outline: as §1

E. faecium A4192 Syn-R = details: Enterococcus faecium, A4192SYNR, read-out: MIC
Outline: as §1

E. faecalis A7789 Line-R = details: Enterococcus faecalis, A7789LINER
Outline: as §1

S. epidermidis ATCC14990 = details: Staphylococcus epidermidis, ATCC14990, S. epidermidis ATCC14990, read-out: MIC
Outline: as §1

E. faecalis ATCC29212 = details: Enterococcus faecalis, ATCC29212, E. faecalis ATCC29212, read-out: MIC
Outline: as §1

E. faecium A6343 Line-R = details: Enterococcus faecium, A6343LINER, read-out: MIC
Outline: as §1

S. epidermidis ATCC12228 = details: Staphylococcus epidermidis, ATCC12228, S. epidermidis ATCC12228, read-out: MIC
Outline: as §1

E. faecium A5959 Line-R = details: Enterococcus faecium, A5959LINER
Outline: as §1

S. aureus ATCC19636 MSSA = details: Staphylococcus aureus, read-out: MIC
Outline: as §1

S. aureus ATCC43300 MRSA = details: Staphylococcus aureus, ATCC 43300 / MRSA / VISA, S. aureus ATCC43300 MRSA/VISA, read-out: MIC
Outline: as §1

S. aureus ATCC12600 MRSA = details: Staphylococcus aureus, read-out: MIC
Outline: as §1

E. faecium A6350 Line-R = details: Enterococcus faecium, A6350LINER, read-out: MIC
Outline: as §1

E. faecium 1836 = details: Enterococcus faecium, 1836, E. faecium 1836, read-out: MIC
Outline: as §1

E. faecium A-5960 Line-R = details: Enterococcus faecium, A5960LINER
Outline: as §1

E. faecium ATCC700221 = details: Enterococcus faecium, ATCC700221, E. faecium ATCC700221, read-out: MIC
Outline: as §1

S. epidermidis ATCC35983 = details: Staphylococcus epidermidis, ATCC35983, S. epidermidis ATCC35983, read-out: MIC
Outline: as §1

E. faecium A2735 Syn-R = details: Enterococcus faecium, A2735SYNR, read-out: MIC
Outline: as §1

S. aureus ATCC35556 MRSA = details: Staphylococcus aureus, read-out: MIC
Outline: as §1

S. aureus ATCC27660 MSSA = details: Staphylococcus aureus, read-out: MIC
Outline: as §1

**Q.** For `CC(=O)NC[C@H]1CN(c2ccc(N3CCOCC3)c(F)c2)C(=O)O1` [Linezolid], which MIC (E. faecium UA210; Table 6, 1st) is on record?
**A.** 4 µg/mL (≈ 11.9 µM)

**Q.** And the MIC (E. faecium UA210; Table 6, 2nd)?
**A.** 2 µg/mL (≈ 5.93 µM)

**Q.** What about the MIC (E. faecium A6349 Line-R; Table 6, 1st) of the same compound?
**A.** 16 µg/mL (≈ 47.4 µM)

**Q.** What about the MIC (E. faecium A6349 Line-R; Table 6, 2nd) of the same compound?
**A.** 16 µg/mL (≈ 47.4 µM)

**Q.** What about the “reference MIC for strains used for killing curve” value (E. faecium A6345 Line-R; E. faecium A6345 Line-R. as printed, second row of Table 3) of the same compound?
**A.** 16 µg/mL

**Q.** What about the “reference MIC for strains used for killing curve” value (E. faecium A6345 Line-R; E. faecium A6345 Line-R., first row of Table 3) of the same compound?
**A.** 16 to 32 µg/mL

**Q.** And the MIC (E. faecium A6345 Line-R; Table 6, 1st)?
**A.** > 16 µg/mL

**Q.** What about the MIC (E. faecium A6345 Line-R; Table 6, 2nd) of the same compound?
**A.** 32 µg/mL (≈ 94.9 µM)

**Q.** And the MIC (E. gallinarum UA604; Table 6, 1st)?
**A.** 4 µg/mL (≈ 11.9 µM)

**Q.** What about the MIC (E. gallinarum UA604; Table 6, 2nd) of the same compound?
**A.** 2 µg/mL (≈ 5.93 µM)

**Q.** And the MIC (S. aureus ATCC27659 MSSA; Table 6, 1st)?
**A.** 4 µg/mL (≈ 11.9 µM)

**Q.** And the MIC (S. aureus ATCC27659 MSSA; Table 6, 2nd)?
**A.** 2 µg/mL (≈ 5.93 µM)

**Q.** And the MIC (E. faecium A4192 Syn-R; Table 6, 1st)?
**A.** 4 µg/mL (≈ 11.9 µM)

**Q.** And the MIC (E. faecium A4192 Syn-R; Table 6, 2nd)?
**A.** 2 µg/mL (≈ 5.93 µM)

**Q.** What about the MIC (E. faecalis A7789 Line-R; Table 6, 1st) of the same compound?
**A.** > 16 µg/mL

**Q.** What about the MIC (E. faecalis A7789 Line-R; Table 6, 2nd) of the same compound?
**A.** 32 µg/mL (≈ 94.9 µM)

**Q.** What about the MIC (S. epidermidis ATCC14990; Table 6, 1st) of the same compound?
**A.** 4 µg/mL (≈ 11.9 µM)

**Q.** And the MIC (S. epidermidis ATCC14990; Table 6, 2nd)?
**A.** 2 µg/mL (≈ 5.93 µM)

**Q.** What about the MIC (E. faecalis ATCC29212; Table 6, 1st) of the same compound?
**A.** 4 µg/mL (≈ 11.9 µM)

**Q.** And the MIC (E. faecalis ATCC29212; Table 6, 2nd)?
**A.** 2 µg/mL (≈ 5.93 µM)

**Q.** And the MIC (E. faecium A6343 Line-R; Table 6, 1st)?
**A.** 8 µg/mL (≈ 23.7 µM)

**Q.** And the MIC (E. faecium A6343 Line-R; Table 6, 2nd)?
**A.** 8 µg/mL (≈ 23.7 µM)

**Q.** What about the MIC (S. epidermidis ATCC12228; Table 6, 1st) of the same compound?
**A.** 2 µg/mL (≈ 5.93 µM)

**Q.** And the MIC (S. epidermidis ATCC12228; Table 6, 2nd)?
**A.** 2 µg/mL (≈ 5.93 µM)

**Q.** What about the MIC (E. faecium A5959 Line-R; Table 6, 1st) of the same compound?
**A.** > 16 µg/mL

**Q.** And the MIC (E. faecium A5959 Line-R; Table 6, 2nd)?
**A.** 16 µg/mL (≈ 47.4 µM)

**Q.** What about the MIC (S. aureus ATCC19636 MSSA; Table 6, 1st) of the same compound?
**A.** 4 µg/mL (≈ 11.9 µM)

**Q.** And the MIC (S. aureus ATCC19636 MSSA; Table 6, 2nd)?
**A.** 2 µg/mL (≈ 5.93 µM)

**Q.** And the MIC (S. aureus ATCC43300 MRSA; Table 6, 1st)?
**A.** 4 µg/mL (≈ 11.9 µM)

**Q.** And the MIC (S. aureus ATCC43300 MRSA; Table 6, 2nd)?
**A.** 2 µg/mL (≈ 5.93 µM)

**Q.** And the MIC (S. aureus ATCC12600 MRSA; Table 6, 1st)?
**A.** 4 µg/mL (≈ 11.9 µM)

**Q.** And the MIC (S. aureus ATCC12600 MRSA; Table 6, 2nd)?
**A.** 2 µg/mL (≈ 5.93 µM)

**Q.** What about the MIC (E. faecium A6350 Line-R; Table 6, 1st) of the same compound?
**A.** 4 µg/mL (≈ 11.9 µM)

**Q.** What about the MIC (E. faecium A6350 Line-R; Table 6, 2nd) of the same compound?
**A.** 2 µg/mL (≈ 5.93 µM)

**Q.** And the MIC (E. faecium 1836; Table 6, 1st)?
**A.** 4 µg/mL (≈ 11.9 µM)

**Q.** And the MIC (E. faecium 1836; Table 6, 2nd)?
**A.** 2 µg/mL (≈ 5.93 µM)

**Q.** And the MIC (E. faecium A-5960 Line-R; Table 6, 1st)?
**A.** > 16 µg/mL

**Q.** And the MIC (E. faecium A-5960 Line-R; Table 6, 2nd)?
**A.** 32 µg/mL (≈ 94.9 µM)

**Q.** And the MIC (E. faecium ATCC700221; Table 6, 1st)?
**A.** 4 µg/mL (≈ 11.9 µM)

**Q.** What about the MIC (E. faecium ATCC700221; Table 6, 2nd) of the same compound?
**A.** 2 µg/mL (≈ 5.93 µM)

**Q.** And the MIC (S. epidermidis ATCC35983; Table 6, 1st)?
**A.** 2 µg/mL (≈ 5.93 µM)

**Q.** And the MIC (S. epidermidis ATCC35983; Table 6, 2nd)?
**A.** 2 µg/mL (≈ 5.93 µM)

**Q.** What about the MIC (E. faecium A2735 Syn-R; Table 6, 1st) of the same compound?
**A.** 4 µg/mL (≈ 11.9 µM)

**Q.** What about the MIC (E. faecium A2735 Syn-R; Table 6, 2nd) of the same compound?
**A.** 2 µg/mL (≈ 5.93 µM)

**Q.** What about the MIC (S. aureus ATCC35556 MRSA; Table 6, 1st) of the same compound?
**A.** 4 µg/mL (≈ 11.9 µM)

**Q.** And the MIC (S. aureus ATCC35556 MRSA; Table 6, 2nd)?
**A.** 2 µg/mL (≈ 5.93 µM)

**Q.** And the MIC (S. aureus ATCC27660 MSSA; Table 6, 1st)?
**A.** 4 µg/mL (≈ 11.9 µM)

**Q.** What about the MIC (S. aureus ATCC27660 MSSA; Table 6, 2nd) of the same compound?
**A.** 2 µg/mL (≈ 5.93 µM)
